We go through 9 compounds from patent US20250092043A1, “Kinase Inhibitors and Degraders” (Incyte Corporation, priority 2023, published 2025).

T1 sequence (O60674 whole entry V617F): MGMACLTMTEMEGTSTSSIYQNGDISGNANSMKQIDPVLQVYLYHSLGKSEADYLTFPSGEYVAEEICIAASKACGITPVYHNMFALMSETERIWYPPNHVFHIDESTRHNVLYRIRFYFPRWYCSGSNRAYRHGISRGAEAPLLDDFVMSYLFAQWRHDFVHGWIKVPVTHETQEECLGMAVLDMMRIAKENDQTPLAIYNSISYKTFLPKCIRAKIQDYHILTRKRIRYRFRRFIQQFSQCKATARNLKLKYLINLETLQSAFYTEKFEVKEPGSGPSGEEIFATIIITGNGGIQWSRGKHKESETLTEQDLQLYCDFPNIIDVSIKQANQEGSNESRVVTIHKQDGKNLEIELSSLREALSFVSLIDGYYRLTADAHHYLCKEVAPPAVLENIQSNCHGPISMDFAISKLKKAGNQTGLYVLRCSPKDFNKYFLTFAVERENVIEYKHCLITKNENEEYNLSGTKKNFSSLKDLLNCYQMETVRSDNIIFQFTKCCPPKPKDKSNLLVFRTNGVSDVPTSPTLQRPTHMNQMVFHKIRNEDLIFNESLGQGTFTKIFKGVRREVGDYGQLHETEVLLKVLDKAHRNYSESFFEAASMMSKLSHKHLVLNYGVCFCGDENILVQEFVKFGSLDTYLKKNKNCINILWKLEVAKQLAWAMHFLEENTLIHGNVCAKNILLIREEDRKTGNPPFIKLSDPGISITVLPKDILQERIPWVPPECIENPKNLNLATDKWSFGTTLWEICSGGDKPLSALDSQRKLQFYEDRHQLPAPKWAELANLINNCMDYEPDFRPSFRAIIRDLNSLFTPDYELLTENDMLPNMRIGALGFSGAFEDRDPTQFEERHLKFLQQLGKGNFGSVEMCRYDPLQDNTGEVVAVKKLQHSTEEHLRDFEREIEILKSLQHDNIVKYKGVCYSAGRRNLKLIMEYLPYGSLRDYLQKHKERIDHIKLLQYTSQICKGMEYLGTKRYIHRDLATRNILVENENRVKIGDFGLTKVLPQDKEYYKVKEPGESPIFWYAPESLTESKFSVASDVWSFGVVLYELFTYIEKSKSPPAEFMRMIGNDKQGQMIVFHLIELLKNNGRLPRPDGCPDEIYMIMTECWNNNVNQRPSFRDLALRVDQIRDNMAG

One assay addresses T1, JAK2 (Homo sapiens, UniProt O60674, V617F).
T1 construct: their effect on JAK2 protein degradation in SET2 cells; host or cells: SET2 cells (human essential thrombocythemia)
The experiment in a line: Western blot quantitation of JAK2 degradation in SET2 cells. It counts as cell-based. Conditions: 5 μM compound, 8 hours treatment, western blot densitometry vs. DMSO vehicle. The protocol: Example E. Western Blot Analysis of JAK2 Dependent SET2 Cells Treated with Compounds of the Present Disclosure
SET2 cells (DSMZ, catalog number ACC 608) are isolated from a person with human essential thrombocythemia and carry the JAK2 V617F mutation.
SET2 cells were cultured in RPMI culture medium (Gibco, catalog number 11875085) supplemented with 1% penicillin-streptomycin-glutamine (Thermo Fisher Scientific, catalog number 10378016) and 20% fetal bovine serum (Gibco, catalog number 10438034). Cultured cells were maintained at 37° C., 5% CO2 in the incubator.
Approximately 1,000,000 cells/well were added in 6-well plate containing 1.5 ml culture media with specified concentrations of compounds of the present disclosure or DMSO control. Cells were treated with concentrations of 10 uM, 5 uM, 1 uM, and 0.5 uM. Proteasome inhibitor MG-132 (Cell signaling, catalog number 2194) was added at 20 uM to an additional 10 uM compound treatment. The treatment period was 8 hours. After 8 hours, cells were collected in 1.5 mL microcentrifuge tubes. Tubes were centrifuged at 1500 rpm for 5 min. Supernatant was aspirated and samples were washed with 1 mL of cold PBS. The samples were centrifuged again at 1500 rpm for 5 min, supernatant was aspirated. The sample pellets were lysed using 150 μL of 1× lysing buffer (Cell Signaling Technologies—catalog number 9803S) supplemented with 1× Halt™ Protease and Phosphatase Inhibitor Cocktail (Thermo Fisher Scientific—catalog number 78447). Using Pierce™ BCA Protein Assay Kit (Thermo Fisher Scientific—catalog number 23225), protein concentration of the samples were quantitated. After normalizing sample concentration to approximately 20 ug/well, samples were loaded onto 4-12% Tris-glycine gels. Gels were transferred to nitrocellulose membranes using iBlot 2 Dry Blotting System and iBlot™ 2 Transfer Stacks, nitrocellulose (Thermo Fisher Scientific—catalog number IB23001). Following transfer, membranes were blocked with StartingBlock (Thermo Fisher Scientific—catalog number 37543). After 1 hour of blocking membranes, they were probed for JAK2, pSTAT5, STAT5, CRBN, and GAPDH (Cell Signaling—catalog numbers 3230, 4322, 25656, 71810, and 5174 respectively).
Compounds of the present disclosure were screened at various concentrations to determine their effect on JAK2 protein degradation in SET2 cells, using methods as described above. DMSO was used as the vehicle control with no PROTAC® added. Co-administration of 20 μM of the proteasome inhibitor MG-132 with the PROTAC® compound at its highest concentration (i.e., 5 or 10 μM) tested was conducted to support the hypothesis that the degradation was driven by the ubiquitin-proteosome system (UPS). Degradation was evaluated by western blot densitometry quantitation using the FluorChem M instrument software to analyze the intensity of the JAK2 band signal at various concentrations of PROTAC® compound vs. the JAK2 band signal of the DMSO vehicle. It is noted that ˜82% of JAK2 exists as the V617F mutant, with the remaining 18% of JAK2 being WT. Therefore, if the V617F mutant JAK2 is selectively degraded over the WT, the maximum degradation is ˜80%. Degradation was graded as A: […]; B: ≥40% to <60% degradation; C: ≥20% to <40% degradation, D: <20% to ≥10%; E<10%. ** refers to degradation at 0.5 μM.
On to `COC(=O)N[C@@H]1CC[C@@H](n2c(=O)n(C)c3cnc4[nH]c(-c5ccc(C(=O)N6CCN(c7ccc8c(c7)C(=O)N(C7CCC(=O)NC7=O)C8=O)CC6)cc5)c(-c5ccc6c(cnn6C(C)C)c5)c4c32)C1` (stereo partly drawn) [Example 62, Methyl((1R,3R)-3-(7-(4-(4-(2-(2,6-dioxopiperidin-3-yl)-1,3-dioxoisoindolin-5-yl)piperazine-1-carbonyl)phenyl)-8-(1-isopropyl-1H-indazol-5-yl)-3-methyl-2-oxo-3,6-dihydroimidazo[4,5-d]pyrrolo[2,3-b]pyridin-1(2H)-yl)cyclopentyl)carbamate], for which the “JAK2 % Degradation in SET2” value is given as “E (E<10%)”. With `COC(=O)N[C@@H]1CC[C@@H](n2c(=O)n(C)c3cnc4[nH]c(-c5ccc(C(=O)N6CCC(CN7CCN(c8cccc9c8C(=O)N(C8CCC(=O)NC8=O)C9)CC7)CC6)cc5)c(-c5ccc6c(cnn6C(C)C)c5)c4c32)C1` (stereo partly drawn) [Example 63, Methyl((1R,3R)-3-(7-(4-(4-((4-(2-(2,6-dioxopiperidin-3-yl)-3-oxoisoindolin-4-yl)piperazin-1-yl)methyl)piperidine-1-carbonyl)phenyl)-8-(1-isopropyl-1H-indazol-5-yl)-3-methyl-2-oxo-3,6-dihydroimidazo[4,5-d]pyrrolo[2,3-b]pyridin-1(2H)-yl)cyclopentyl)carbamate], the “JAK2 % Degradation in SET2” value is “C (C: ≥20% to <40% degradation)”.

The same assay, now with this note: 10 μM compound, 8 hours treatment, western blot densitometry vs. DMSO vehicle.
On to `CN[C@@H](C)C(=O)N[C@H](C(=O)N1C[C@@H](NC(=O)[C@H]2CC[C@H](CNC(=O)c3ccc(-c4[nH]c5ncc6c(c5c4-c4ccc5c(cnn5C(C)C)c4)n([C@@H]4CC[C@@H](NC(=O)OC)C4)c(=O)n6C)cc3F)CC2)C[C@H]1C(=O)N[C@@H]1CCCc2ccccc21)C1CCCCC1` [Example 47, Methyl((1R,3R)-3-(7-(4-((((trans)-4-(((3S,5S)-1-((S)-2-cyclohexyl-2-((S)-2-(methylamino)propanamido)acetyl)-5-(((R)-1,2,3,4-tetrahydronaphthalen-1-yl)carbamoyl)pyrrolidin-3-yl)carbamoyl)cyclohexyl)methyl)carbamoyl)-3-fluorophenyl)-8-(1-isopropyl-1H-indazol-5-yl)-3-methyl-2-oxo-3,6-dihydroimidazo[4,5-d]pyrrolo[2,3-b]pyridin-1(2H)-yl)cyclopentyl)carbamate], for which the “JAK2 % Degradation in SET2” value is on record as “C (C: ≥20% to <40% degradation)”. As for `CN[C@@H](C)C(=O)N[C@H](C(=O)N1C[C@@H](NC(=O)COCCOCCNC(=O)c2ccc(-c3[nH]c4ncc5c(c4c3-c3ccc4c(cnn4C(C)C)c3)n([C@@H]3CC[C@@H](NC(=O)OC)C3)c(=O)n5C)cc2F)C[C@H]1C(=O)N[C@@H]1CCCc2ccccc21)C1CCCCC1` [Example 51, Methyl((1R,3R)-3-(7-(4-((2-(2-(2-(((3S,5S)-1-((S)-2-cyclohexyl-2-((S)-2-(methylamino)propanamido)acetyl)-5-(((R)-1,2,3,4-tetrahydronaphthalen-1-yl)carbamoyl)pyrrolidin-3-yl)amino)-2-oxoethoxy)ethoxy)ethyl)carbamoyl)-3-fluorophenyl)-8-(1-isopropyl-1H-indazol-5-yl)-3-methyl-2-oxo-3,6-dihydroimidazo[4,5-d]pyrrolo[2,3-b]pyridin-1(2H)-yl)cyclopentyl)carbamate], the “JAK2 % Degradation in SET2” value was “B (B: ≥40% to <60% degradation)”. On to `COC(=O)N[C@@H]1CC[C@@H](n2c(=O)n(C)c3cnc4[nH]c(-c5ccc(C(=O)N6CCC(CC(=O)Nc7ccc8c(c7)CN(C7CCC(=O)NC7=O)C8=O)CC6)c(F)c5)c(-c5ccc6c(cnn6C(C)C)c5)c4c32)C1` (stereo partly drawn) [Example 53, Methyl((1R,3R)-3-(7-(4-(4-(2-((2-(2,6-dioxopiperidin-3-yl)-1-oxoisoindolin-5-yl)amino)-2-oxoethyl)piperidine-1-carbonyl)-3-fluorophenyl)-8-(1-isopropyl-1H-indazol-5-yl)-3-methyl-2-oxo-3,6-dihydroimidazo[4,5-d]pyrrolo[2,3-b]pyridin-1(2H)-yl)cyclopentyl)carbamate], for which the “JAK2 % Degradation in SET2” value is on record as “C (C: ≥20% to <40% degradation)”. Take `COC(=O)N[C@@H]1CC[C@@H](n2c(=O)n(C)c3cnc4[nH]c(-c5ccc(C(=O)NC[C@H]6CC[C@H](C(=O)Nc7ccc8c(c7)CN(C7CCC(=O)NC7=O)C8=O)CC6)c(F)c5)c(-c5ccc6c(cnn6C(C)C)c5)c4c32)C1` (stereo partly drawn) [Example 54, Methyl((1R,3R)-3-(7-(4-((((trans-)-4-((2-(2,6-dioxopiperidin-3-yl)-1-oxoisoindolin-5-yl)carbamoyl)cyclohexyl)methyl)carbamoyl)-3-fluorophenyl)-8-(1-isopropyl-1H-indazol-5-yl)-3-methyl-2-oxo-3,6-dihydroimidazo[4,5-d]pyrrolo[2,3-b]pyridin-1(2H)-yl)cyclopentyl)carbamate]: the “JAK2 % Degradation in SET2” value was “C (C: ≥20% to <40% degradation)”. Take `COC(=O)N[C@@H]1CC[C@@H](n2c(=O)n(C)c3cnc4[nH]c(-c5ccc(C(=O)N6CCC(C(=O)Nc7ccc8c(c7)CN(C7CCC(=O)NC7=O)C8=O)CC6)c(F)c5)c(-c5ccc6c(cnn6C(C)C)c5)c4c32)C1` (stereo partly drawn) [Example 58, Methyl((1R,3R)-3-(7-(4-(4-((2-(2,6-dioxopiperidin-3-yl)-1-oxoisoindolin-5-yl)carbamoyl)piperidine-1-carbonyl)-3-fluorophenyl)-8-(1-isopropyl-1H-indazol-5-yl)-3-methyl-2-oxo-3,6-dihydroimidazo[4,5-d]pyrrolo[2,3-b]pyridin-1(2H)-yl)cyclopentyl)carbamate]: the “JAK2 % Degradation in SET2” value is “E (E<10%)”. Same read-out and setting: as for `COC(=O)N[C@@H]1CC[C@@H](n2c(=O)n(C)c3cnc4[nH]c(-c5ccc(C(=O)N6CCC(C(=O)Nc7ccc8c(c7)CN(C7CCC(=O)NC7=O)C8=O)CC6)cc5)c(-c5ccc6c(cnn6C(C)C)c5)c4c32)C1` (stereo partly drawn) [Example 60, Methyl((1R,3R)-3-(7-(4-(4-((2-(2,6-dioxopiperidin-3-yl)-1-oxoisoindolin-5-yl)carbamoyl)piperidine-1-carbonyl)phenyl)-8-(1-isopropyl-1H-indazol-5-yl)-3-methyl-2-oxo-3,6-dihydroimidazo[4,5-d]pyrrolo[2,3-b]pyridin-1(2H)-yl)cyclopentyl)carbamate], the entry is “C (C: ≥20% to <40% degradation)”; as for `COC(=O)N[C@@H]1CC[C@@H](n2c(=O)n(C)c3cnc4[nH]c(-c5ccc(C(=O)N6CCC(CC(=O)Nc7ccc8c(c7)CN(C7CCC(=O)NC7=O)C8=O)CC6)cc5)c(-c5ccc6c(cnn6C(C)C)c5)c4c32)C1` (stereo partly drawn) [Example 61, Methyl((1R,3R)-3-(7-(4-(4-(2-((2-(2,6-dioxopiperidin-3-yl)-1-oxoisoindolin-5-yl)amino)-2-oxoethyl)piperidine-1-carbonyl)phenyl)-8-(1-isopropyl-1H-indazol-5-yl)-3-methyl-2-oxo-3,6-dihydroimidazo[4,5-d]pyrrolo[2,3-b]pyridin-1(2H)-yl)cyclopentyl)carbamate], “C (C: ≥20% to <40% degradation)”.
